In PubChem BioAssay (NCI):
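Tested at 5 concentrations; 48 h exposure; 96-well plates; endpoints linearly interpolated, else capped at highest concentration. Abbreviation: GI50, concentration required for 50% inhibition of growth. TGI denotes the concentration required for complete inhibition of growth.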

Experiments:
Assay in all cases: growth of human tumour cells (NCI), 48 h
[1] = system: A498 renal
[2] = system: HL-60(TB) leukemia
[3] = system: SNB-19 CNS
[4] = system: EKVX NSCLC
[5] = system: U251 CNS
[6] = system: HCT-15 colon
[7] = system: MDA-MB-231 breast
[8] = system: ACHN renal
[9] = system: HS 578T breast
[10] = system: OVCAR-4 ovarian
[11] = system: SK-MEL-28 melanoma
[12] = system: MCF7 breast
[13] = system: SF-539 CNS
[14] = system: NCI/ADR-RES ovarian
[15] = system: RXF 393 renal
[16] = system: SNB-75 CNS
[17] = system: LOX IMVI melanoma
[18] = system: OVCAR-8 ovarian
[19] = system: MDA-MB-435
[20] = system: OVCAR-5 ovarian
[21] = system: OVCAR-3 ovarian
[22] = system: SK-MEL-5 melanoma
[23] = system: MDA-MB-468 breast
[24] = system: KM12 colon
[25] = system: TK-10 renal
[26] = system: PC-3 prostate
[27] = system: IGROV1 ovarian
[28] = system: UO-31 renal
[29] = system: SF-295 CNS
[30] = system: SN12C renal
[31] = system: NCI-H23 lung
[32] = system: CCRF-CEM leukemia
[33] = system: UACC-62 melanoma
[34] = system: MALME-3M melanoma
[35] = system: RPMI-8226 leukemia
[36] = system: DU-145 prostate
[37] = system: K-562 leukemia
[38] = system: HCC-2998 colon

Brc1ccc(-c2n(Cc3ccc4ccccc4c3)c(-c3ccccc3)c(-c3ccccc3)[n+]2Cc2ccc3ccccc3c2)cc1 showed a GI50 [1] of 338 nM, a TGI [1] of 1310 nM and a GI50 [2] of 154 nM. It also gave a TGI [2] of 533 nM, a GI50 [3] of 314 nM and a TGI [3] of 1250 nM. It also gave a GI50 [4] of 197 nM, a TGI [4] of 1030 nM and a GI50 [5] of 248 nM. It also gave a TGI [5] of 2600 nM, a GI50 [6] of 695 nM and a TGI [6] of 2020 nM. The GI50 [7] was 239 nM, the TGI [7] was 707 nM and the GI50 [8] was 363 nM. It also gave a TGI [8] of 1240 nM, a GI50 [9] of 439 nM and a TGI [9] of 2180 nM. For the same molecule, the GI50 [10] was 300 nM, the TGI [10] was 1400 nM and the GI50 [11] was 428 nM. For the same molecule, the TGI [11] was 1580 nM, the GI50 [12] was 221 nM and the TGI [12] was 816 nM. For the same molecule, the GI50 [13] was 338 nM, the TGI [13] was 1250 nM and the GI50 [14] was 1440 nM. It also gave a TGI [14] of 2970 nM, a GI50 [15] of 212 nM and a TGI [15] of 798 nM. The GI50 [16] was 189 nM, the TGI [16] was 1020 nM and the GI50 [17] was 272 nM. For the same molecule, the TGI [17] was 857 nM, the GI50 [18] was 302 nM and the TGI [18] was 1800 nM. The GI50 [19] was 295 nM, the TGI [19] was 1070 nM and the GI50 [20] was 305 nM. For the same molecule, the TGI [20] was 1240 nM, the GI50 [21] was 253 nM and the TGI [21] was 2790 nM. For the same molecule, the GI50 [22] was 169 nM, the TGI [22] was 316 nM and the GI50 [23] was 68.7 nM. The TGI [23] was 494 nM, the GI50 [24] was 276 nM and the TGI [24] was 1130 nM. For the same molecule, the GI50 [25] was 296 nM, the TGI [25] was 1190 nM and the GI50 [26] was 332 nM. It also gave a TGI [26] of 1500 nM, a GI50 [27] of 301 nM and a TGI [27] of 1490 nM. The GI50 [28] was 1130 nM, the TGI [28] was 2550 nM and the GI50 [29] was 220 nM. For the same molecule, the TGI [29] was 682 nM, the GI50 [30] was 256 nM and the TGI [30] was 1010 nM. For the same molecule, the GI50 [31] was 244 nM, the TGI [31] was 817 nM and the GI50 [32] was 342 nM. The TGI [32] was 2010 nM, the GI50 [33] was 285 nM and the TGI [33] was 1200 nM. It also gave a GI50 [34] of 214 nM, a TGI [34] of 635 nM and a GI50 [35] of 124 nM. It also gave a TGI [35] of 744 nM, a GI50 [36] of 381 nM and a TGI [36] of 1480 nM. For the same molecule, the GI50 [37] was 152 nM, the TGI [37] was 1460 nM and the GI50 [38] was 344 nM. It also gave a TGI [38] of 1370 nM.
